System: pressurized cerebral arteries from β1-knockout (KCNMB1-knockout) mice
Experiment: Artery diameter measurement, pressurized cerebral arteries from BK β1-knockout mice
Design: species or system mouse
Conditions: 55 nM
Experimental: Artery Diameter Measurement. Middle cerebral arteries were isolated from adult male Sprague-Dawley rats (=250 g) or 8- to 12-week-old β1-knockout and C57BL/6 control mice. Rats and mice were decapitated using a guillotine and sharp scissors, respectively. These procedures were approved by the Institutional Animal Care and Use Committee from The University of Tennessee Health Science Center, an AMLAC-accredited institution. Pressurization of arteries was performed as described (Liu et al., 2004). Endothelium was removed by passing an air bubble into the vessel lumen for 90 sec. Diameter changes were monitored through an inverted microscope (Nikon Eclipse TS100, Nikon Corp., Tokyo, Japan), recorded on camera (Sanyo VCB-3512T, Sanyo Electric Corp., Japan), and transferred to a computer. Diameter data were acquired and analyzed using IonWizard 4.4 software (IonOptics Corp., Milton, Mass., United States of America). […]
Data Analysis. […] Arterial diameter and electrophysiological data were analyzed with IonWizard 4.4 (IonOptics Corp., Milton, Mass., United States of America) and pCLAMP 8.0 (Molecular Devices, Union City, Calif., United States of America). […]
To determine the impact of LC targeting of BK β1-subunits on organ function, LC action on the arterial diameter of pressurized cerebral arteries was evaluated from β1-knockout vs. wt C57BU6 mice (controls). […]

iberiotoxin (QFTDVDCSVSKECWSVCKDLFGVDRGKCMGKKCRCYQ; UniProt P24663 1-37, looked up) [Ibtx, reference compound]
Decrease in diameter: −2.25±0.44%

From patent US20080200439A1, “Methods and compositions for modulating BK channel activity and vasodilation” (University of Tennessee Research Foundation, priority 2006, published 2008)
